In patent US20090004145A1, “COMPOSITIONS AND METHODS INVOLVING GENE THERAPY AND PROTEASOME MODULATION” (priority 2006, published 2009):
Where a SMILES comes first, the peptide text is derived from it. The star is where a group is joined. Cbz = O=C(OCc1ccccc1)*

Assays:
[1] = test system: proteasome activity in 2008 cells; test: Proteasome activity assay (commercially available kit) on cell lysates; format: cell-based, human; conditions: 48 h
Method: FIG. 11. Inhibition of the proteasomal activity by MG132 results in increased ubiquitinated MDA-7 protein expression in CDDP-sensitive tumor cells but not in CDDP-resistant tumor cells. FIG. 11A, CDDP-resistant (2008/C*13 R) and sensitive (2008) ovarian tumor cells were plated in six-well plates and were treated with PBS, MG132, Ad-mda7, or Ad-mda7 plus MG132. At 48 h after treatment cells were harvested, lysates and supernatants prepared and subjected to MDA-7 and total ubiquitinated protein detection by western blotting and proteasome activity assay using commercially available kit. […] However, the MDA-7 protein was increased in 2008 cells when treated with MG132 plus Ad-mda7. […] FIG. 11B, CDDP-resistant (2008/C*13 R) and sensitive (2008) ovarian tumor cells were plated in six-well plates and were treated with PBS, MG132, Ad-p53, or Ad-p53 plus MG132. At 48 h after treatment cells were harvested, lysates and supernatants prepared and subjected to p53 protein detection by western blotting and proteasome activity using commercially available kit. […] However, the p53 protein was increased in 2008 cells when treated with MG132 plus Ad-p53.
FIG. 20. SiRNA-mediated inhibition of Beta-5 subunit expression of the 20S proteasome in CDDP-sensitive tumor cells abrogates proteasome activity. CDDP-sensitive (2008) ovarian tumor cells were plated in six-well plates. […]

[2] = test system: MDA-7 protein in 2008/C*13 R cells; test: Western blotting of MDA-7 protein expression; format: cell-based, human; conditions: 48 h, vs Ad-mda7 alone
Method: FIG. 4. MDA-7 protein expression is increased in CDDP-Resistant Ovarian tumor cells in a time-dependent and dose-dependent manner. FIG. 4A, Ovarian tumor cells (2008 and 2008/C*13 R) seeded in six-well plates were treated with PBS, Ad-luc or Ad-mda7 (3000 vp/cell). Cells were harvested on day 1 and day 2 after treatment and analyzed for MDA-7 protein expression by western blotting. […] Beta-actin was used as an internal loading control. FIG. 4B, Ovarian tumor cells (2008 and 2008/C*13 R) seeded in six-well plates were treated with different doses of Ad-mda7 (1000, 3000, 5000 or 7500 vp/cell). Untreated cells served as control. Cells were harvested on day 2 after treatment and analyzed for MDA-7 protein expression by western blotting. […] Beta-actin was used as an internal loading control. […] However, MDA-7 protein was higher in the supernatant of Ad-mda7-treated 2008/C*13 R cells compared to Ad-mda7-treated 2008 cells.
FIG. 11. […]
MDA-7 Protein Expression is Increased in CDDP-Resistant Ovarian Tumor Cells in a Time-dependent and Dose-Dependent Manner. […] Cells were harvested on day 1 and day 2 after treatment and analyzed for MDA-7 protein expression by western blotting. […] Cells were harvested on day 2 after treatment and analyzed for MDA-7 protein expression by western blotting. […]

CC(C)C[C@@H](C=O)NC(=O)[C@H](CC(C)C)NC(=O)[C@H](CC(C)C)NC(=O)OCc1ccccc1 [MG132] (Cbz-Leu-Leu-Leu-aldehyde)
inhibition of proteasome activity ([1]; FIG. 11A (Ad-mda7 experiment)): 60-65% | inhibition of proteasome activity ([1]; FIG. 11B (Ad-p53 experiment)): 60-65% | MDA-7 protein expression with proteasome inhibitor [2]: significantly increased
